Data as given in patent US7183415B2, “Quinoline compound” (Takeda Pharmaceutical Company Limited, priority 2001, dated 2007).

Row | SMILES | melting point [°C]
1 | O=C(Nc1cc2ncc(CN3CCCC3)cc2cc1F)c1ccc(-c2ccc(F)cc2)cc1F [Example 60, 3,4′-difluoro-N-[6-fluoro-3-(1-pyrrolidinylmethyl)-7-quinolinyl][1,1′-biphenyl]-4-carboxamide] | 200 to 202
2 | Cc1ccc(-c2ccc(C(=O)Nc3cc4ncc(CN5CCCC5)cc4cc3F)c(F)c2)cc1 [Example 61, 3-fluoro-N-[6-fluoro-3-(1-pyrrolidinylmethyl)-7-quinolinyl]-4′-methyl[1,1′-biphenyl]-4-carboxamide] | 179 to 181
3 | O=C(Nc1cc2ncc(CN3CCCC3)cc2cc1F)c1ccc(-c2ccc(Cl)cc2)cc1F [Example 62, 4′-chloro-3-fluoro-N-[6-fluoro-3-(1-pyrrolidinylmethyl)-7-quinolinyl][1,1′-biphenyl]-4-carboxamide] | 217 to 219
4 | O=C(Nc1cc2ncc(CN3CCCC3)cc2cc1N1CCCC1)c1ccc(Br)cc1 [Example 63, 4-bromo-N-[6-(1-pyrrolidinyl)-3-(1-pyrrolidinylmethyl)-7-quinolinyl]benzamide] | 171 to 173
5 | O=C(Nc1cc2ncc(CN3CCCC3)cc2cc1N1CCCC1)c1ccc(-c2ccc(F)cc2)cc1 [Example 64, 4′-fluoro-N-[6-(1-pyrrolidinyl)-3-(1-pyrrolidinylmethyl)-7-quinolinyl][1,1′-biphenyl]-4-carboxamide] | 182 to 184
6 | COc1ccc(-c2ccc(C(=O)Nc3cc4ncc(CN5CCCC5)cc4cc3Cl)cc2)cc1 [Example 67, N-[6-chloro-3-(1-pyrrolidinylmethyl)-7-quinolinyl]-4′-methoxy-[1,1′-biphenyl]-4-carboxamide] | 184
7 | O=C(Nc1cc2ncc(CN3CCCC3)cc2cc1Cl)c1ccc(-c2cc3ccccc3o2)cc1 [Example 68, 4-(1-benzofuran-2-yl)-N-[6-chloro-3-(1-pyrrolidinylmethyl)-7-quinolinyl]benzamide] | 209
8 | O=C(Nc1cc2ncc(CN3CCCC3)cc2cc1Cl)c1ccc(-c2ccc(Cl)s2)cc1 [Example 69, N-[6-chloro-3-(1-pyrrolidinylmethyl)-7-quinolinyl]-4-(5-chlorothien-2-yl)benzamide] | 185
9 | O=C(Nc1ccc2cc(CN3CCCC3)cnc2c1F)c1ccc(-c2ccccc2)cc1 [Example 71, N-[8-fluoro-3-(1-pyrrolidinylmethyl)-7-quinolinyl][1,1′-biphenyl]-4-carboxamide] | 186 to 188
10 | COc1ccc(-c2ccc(C(=O)Nc3ccc4cc(CN5CCCC5)cnc4c3F)cc2)cc1 [Example 72, N-[8-fluoro-3-(1-pyrrolidinylmethyl)-7-quinolinyl]-4′-methoxy[1,1′-biphenyl]-4-carboxamide] | 217 to 220
11 | O=C(Nc1ccc2cc(CN3CCCC3)cnc2c1F)c1ccc(-c2ccc(F)cc2)cc1 [Example 73, 4′-fluoro-N-[8-fluoro-3-(1-pyrrolidinylmethyl)-7-quinolinyl][1,1′-biphenyl]-4-carboxamide] | 178
12 | Cc1ccc(-c2ccc(C(=O)Nc3ccc4cc(CN5CCCC5)cnc4c3F)cc2)cc1 [Example 74, N-[8-fluoro-3-(1-pyrrolidinylmethyl)-7-quinolinyl]-4′-methyl[1,1′-biphenyl]-4-carboxamide] | 210 to 213
13 | O=C(Nc1ccc2cc(CN3CCCC3)cnc2c1F)c1ccc(-c2ccc(Cl)cc2)cc1 [Example 75, 4′-chloro-N-[8-fluoro-3-(1-pyrrolidinylmethyl)-7-quinolinyl][1,1′-biphenyl]-4-carboxamide] | 206 to 208
14 | O=C(Nc1ccc2cc(CN3CCCC3)cnc2c1F)c1ccc(-c2ccccc2)cc1F [Example 77, 3-fluoro-N-[8-fluoro-3-(1-pyrrolidinylmethyl)-7-quinolinyl][1,1′-biphenyl]-4-carboxamide] | 136 to 137
15 | COc1ccc(-c2ccc(C(=O)Nc3ccc4cc(CN5CCCC5)cnc4c3F)c(F)c2)cc1 [Example 79, 3-fluoro-N-[8-fluoro-3-(1-pyrrolidinylmethyl)-7-quinolinyl]-4′-methoxy[1,1′-biphenyl]-4-carboxamide] | 182 to 183

Other lines, results leading:

Row | melting point [°C] | SMILES
16 | 142 to 144 | COc1c(NC(=O)c2ccc(-c3ccc(F)cc3)cc2)ccc2cc(CN3CCCC3)cnc12 [Example 81, 4′-fluoro-N-[8-methoxy-3-(1-pyrrolidinylmethyl)-7-quinolinyl][1,1′-biphenyl]-4-carboxamide]
17 | 266 to 267 | CCc1c(NC(=O)c2ccc(-c3ccc(F)cc3)cc2)ccc2cc(CN3CCCC3)cnc12 [Example 83, N-[8-ethyl-3-(1-pyrrolidinylmethyl)-7-quinolinyl]-4′-fluoro[1,1′-biphenyl]-4-carboxamide]
18 | 232 | O=C(Nc1ccc2cc(CN3CCCC3)cnc2c1)c1ccc(-c2ccc(Cl)cc2)cc1F [Example 85, 4′-chloro-3-fluoro-N-[3-(1-pyrrolidinylmethyl)-7-quinolinyl][1,1′-biphenyl]-4-carboxamide]
19 | 177 | O=C(Nc1ccc2cc(CN3CCCC3)cnc2c1)c1ccc(-c2ccc(F)cc2)cc1F [Example 86]
20 | 174 | COc1ccc(-c2ccc(C(=O)Nc3ccc4cc(CN5CCCC5)cnc4c3)c(F)c2)cc1 [Example 87, 3-fluoro-4′-methoxy-N-[3-(1-pyrrolidinylmethyl)-7-quinolinyl][1,1′-biphenyl]-4-carboxamide]
21 | 166 | O=C(Nc1ccc2cc(CN3CCCC3)cnc2c1)c1ccc(-c2ccccc2)cc1F [Example 88, 3-fluoro-N-[3-(1-pyrrolidinylmethyl)-7-quinolinyl][1,1′-biphenyl]-4-carboxamide]
22 | 204 | O=C(Nc1ccc2cc(CN3CCC(CCO)CC3)cnc2c1)c1ccc(-c2ccc(Cl)cc2)cc1 [Example 89, 4′-chloro-N-(3-{[4-(2-hydroxyethyl)-1-piperidinyl]methyl}-7-quinolinyl)-[1,1′-biphenyl]-4-carboxamide]
23 | 260 | NC(=O)C1CCN(Cc2cnc3cc(NC(=O)c4ccc(-c5ccc(Cl)cc5)cc4)ccc3c2)CC1 [Example 90, 1-[(7-{[(4′-chloro-1,1′-biphenyl-4-yl)carbonyl]amino}-3-quinolinyl)methyl]piperidine-4-carboxamide]
24 | 250 | CCNC(=O)CC1CCN(Cc2cnc3cc(NC(=O)c4ccc(-c5ccc(Cl)cc5)cc4)ccc3c2)CC1 [Example 91, 4′-chloro-N-[3-({4-[2-(ethylamino)-2-oxoethyl]-1-piperidinyl}methyl)-7-quinolinyl][1,1′-biphenyl]-4-carboxamide]
25 | > 285 | CC(=O)NC1CCN(Cc2cnc3cc(NC(=O)c4ccc(-c5ccc(Cl)cc5)cc4)ccc3c2)C1 (stereo not shown) [Example 92, N-(3-{[3-(acetylamino)-1-pyrrolidinyl]methyl}-7-quinolinyl)-4′-chloro-[1,1′-biphenyl]-4-carboxamide]
26 | 178 to 180 | Cc1ccc(-c2ccc(C(=O)Nc3ccc4cc(CN5CCCC5)cnc4c3C)cn2)cc1 [Example 94, 6-(4-methylphenyl)-N-[8-methyl-3-(1-pyrrolidinylmethyl)-7-quinolinyl]nicotinamide]
27 | 234 to 236 | Cc1c(NC(=O)c2ccc(-c3ccc(Cl)cc3)nc2)ccc2cc(CN3CCCC3)cnc12 [Example 95, 6-(4-chlorophenyl)-N-[8-methyl-3-(1-pyrrolidinylmethyl)-7-quinolinyl]nicotinamide]
28 | 180 to 182 | COc1ccc(-c2ccc(C(=O)Nc3ccc4cc(CN5CCCC5)cnc4c3C)cn2)cc1 [Example 96, 6-(4-methoxyphenyl)-N-[8-methyl-3-(1-pyrrolidinylmethyl)-7-quinolinyl]nicotinamide]
29 | 207 to 209 | Cc1c(NC(=O)c2ccc(-c3ccc(F)cc3)nc2)ccc2cc(CN3CCCC3)cnc12 [Example 97, 6-(4-fluorophenyl)-N-[8-methyl-3-(1-pyrrolidinylmethyl)-7-quinolinyl]nicotinamide]
30 | 203 to 205 | Cc1c(NC(=O)N2CCC(c3ccc(Cl)cc3)CC2)ccc2cc(CN3CCCC3)cnc12 [Example 98, 4-(4-chlorophenyl)-N-[8-methyl-3-(1-pyrrolidinylmethyl)-7-quinolinyl]-1-piperidine carboxamide]
31 | 133 to 135 | Cc1c(NC(=O)c2ccc(-c3ccccc3F)cc2)ccc2cc(CN3CCCC3)cnc12 [Example 99, 2′-fluoro-N-[8-methyl-3-(1-pyrrolidinylmethyl)-7-quinolinyl][1,1′-biphenyl]-4-carboxamide]
32 | 177 to 179 | Cc1c(NC(=O)c2ccc(-c3ccc(F)cc3F)cc2)ccc2cc(CN3CCCC3)cnc12 [Example 100, 2′,4′-difluoro-N-[8-methyl-3-(1-pyrrolidinylmethyl)-7-quinolinyl][1,1′-biphenyl]-4-carboxamide]
33 | 220 to 222 | Cc1c(NC(=O)c2ccc(-c3ccc(C(F)(F)F)cc3)cc2)ccc2cc(CN3CCCC3)cnc12 [Example 101, N-[8-methyl-3-(1-pyrrolidinylmethyl)-7-quinolinyl]-4′-(trifluoromethyl)[1,1′-biphenyl]-4-carboxamide]
34 | 199 to 201 | Cc1c(NC(=O)c2ccc(-c3ccc(F)c(F)c3)cc2)ccc2cc(CN3CCCC3)cnc12 [Example 102, 3′,4′-difluoro-N-[8-methyl-3-(1-pyrrolidinylmethyl)-7-quinolinyl][1,1′-biphenyl]-4-carboxamide]
35 | 200 to 202 | Cc1c(NC(=O)c2ccc(-c3ccc(OC(F)(F)F)cc3)cc2)ccc2cc(CN3CCCC3)cnc12 [Example 103, N-[8-methyl-3-(1-pyrrolidinylmethyl)-7-quinolinyl]-4′-(trifluoromethoxy)[1,1′-biphenyl]-4-carboxamide]
36 | 210 to 211 | Cc1c(NC(=O)c2ccc(-c3ccc(Cl)s3)cc2)ccc2cc(CN3CCCC3)cnc12 [Example 107, 4-(5-chloro-2-thienyl)-N-[8-methyl-3-(1-pyrrolidinylmethyl)-7-quinolinyl]benzamide]
37 | 151 to 152 | Cc1cccc(-c2ccc(C(=O)Nc3ccc4cc(CN5CCCC5)cnc4c3C)cc2)c1 [Example 109, 3′-methyl-N-[8-methyl-3-(1-pyrrolidinylmethyl)-7-quinolinyl][1,1′-biphenyl]-4-carboxamide]
